Entries after “also recorded” stand apart in the source; their conditions may differ. Where two headings read alike, the source gives them in different places.
Key:
IL-1β [1] = test: IL-1β production by monocytes of HIV-positive donors; assay type: cell-based, human
Description: (§1) The effects of flavopereirine on the production of primary (IL-1β and TNF-α) and secondary (IL-6) cytokines by monocytes was also tested. The adhesive monocytes used were taken from the blood of two types of donors:
(§2) HIV-positive donors from medical consultations. These individuals were in the early stages of HIV infection and, at the moment of taking the blood, were not undergoing any treatment. The risk factors involved were intravenous drug abuse for six of the donors, sexual transmission for three and blood transfusion (in Zaire) for one patient. No correlation was found between the risk factors and the results of the experiments.
(§3) The response of the monocytes taken from the various HIV-positive donors was tested in terms of spontaneous response. The quantities of cells received were low (the donors were not affected by cytapheresy), and the experiments were therefore limited by the number of cells available.

TNF-α = TNF-α production by monocytes of HIV-positive donors; assay type: cell-based, human
Description: as §1, §2, §3

HIV-1 [2] = tested on: HIV-1
[3] = tested on: viruses of the Shope fibrome type; conditions: intracutaneously 200-600 μg or 2.5-500 mg/day; cited from earlier work
IL-1β [4] = test: IL-1β production by monocytes of normal donors; assay type: cell-based, human
Description: as §1
Normal donors--voluntary blood donors who attended the blood bank of the Pitie-Salpetriere Hospital, Paris, France; and
(§4) Product H was not used in these experiments at a rate of more than 20 μg/ml water, since above this rate, net toxicity could have been produced.

[5] = tested on: human PBMC stimulated with PHA (blasts); test: Cytotoxicity in PHA-stimulated PBMC with or without human AB serum; assay type: cell-based
Description: The cytotoxicity of flavopereirine (compound H) in human PBMC stimulated with PHA was tested in the presence and absence of human AB serum as shown in Table IX.

HIV-1 [6] = test: microbe, parasite or virus in culture; conditions: Human immunodeficiency virus 1, PBMC, read-out: concentration totally inhibiting replication of HIV-1
influenza virus = conditions: cited from earlier work
HIV-1 TIG2 (HIV-1AIDS) [7] = test: HIV P24 production in PBMC, viral inoculum pretreated, isolate TIG2; assay type: cell-based; conditions: virus pretreated with 30 or 60 μg/ml
Description: (§5) To test the efficacy of flavopereirine on the infectious capability of HIV-1, two experiments were conducted. […] After 2 hours of incubation, the cells were rinsed twice and cultivated in 1 ml of RPMI 1640 containing 20 IU of IL-2 per ml (Boehringer […], Germany), 2 μg of Polybrene (hexadimethrine bromide) per ml (Sigma, St. Louis, Mo., USA) and 10^-7 IU of goat antiserum acting against human alpha interferon (Janssen, Beerse, Belgium) per ml. Half the culture was changed after 72 hours, and thereafter every 48 hours until the 30th day. […] The surface material of the culture was tested by an immuno-enzymatic (ELISA) assay for the production of antigen P24 (Abbott, Chicago, Ill., USA) and the optical density (OD) of the resulting color was converted into P24 concentration from the slope of a standard nomogram, as described by W. Lu and J. -M. Andrieu, Journal of Virology, 66(1): 334-340 (1992).

in vivo = conditions: for LD50 at 336 h / LD50 safety limits: rat, in vivo
Description: In accordance with the invention, flavopereirine is administered orally in the forms of capsules to patients infected with HIV at levels of 1-3 grams per day.

[8] = Cytotoxicity in human monocytes; assay type: cell-based; conditions: human, monocytes
Description: as §4

human monocytes = test: Cytotoxicity in human monocytes; assay type: cell-based; conditions: four donors
Description: as §4

MT4 cells = test: Cellular toxicity in MT4 cells; assay type: cell-based; conditions: d3, duplicate
HIV [9] = conditions: human, in vivo
HIV [10] = assay type: cell-based
HIV-1 TIG2 (HIV-1AIDS) [11] = test: HIV P24 production, target PBMC pretreated, isolate TIG2; assay type: cell-based; conditions: for Post-infection production of HIV P24: PBMC + 30 μg/ml 2 hours
Description: as §5

interleukin-6 = test: IL-6 production by monocytes of HIV-positive donors; assay type: cell-based, human
Description: as §1, §2, §3
Interleukin-4 was used at the same time as flavopereirine H, since it has been shown prior to these experiments that this cytokine blocks the spontaneous production of interleukin-6 in certain HIV-positive patients.
In five cases, […] was used for comparison, since this, too, blocks the production of IL-6 in normal monocytes stimulated by LPS.

CCc1ccc2c3[nH]c4ccccc4c3cc[n+]2c1 [flavopereirine]
direct activity on base production of IL-1β (IL-1β [1]; HIV-positive donors): No modification on the base production was observed
indirect activity on production of interleukin-1 (IL-1β [1]; three dosages, p<0.05): absence of any impact on the production of interleukin-1
indirect activity on production of TNF-α (TNF-α; 20 μg/ml only, p<0.05): almost total reduction in the production of TNF-α
direct activity on base production of TNF-α (TNF-α; HIV-positive donors): No modification on the base production was observed
Production of P24 in HIV (HIV-1 [2]; 50% AB serum, 10 μg/ml 2 hrs, d4): 384 ± 83 pg/mL
Production of P24 in HIV (HIV-1 [2]; 50% AB serum, 10 μg/ml 2 hrs, d10): > 1500 pg/mL
Production of P24 in HIV (HIV-1 [2]; 50% AB serum, 30 μg/ml 2 hrs, d4): 275 ± 98 pg/mL
Production of P24 in HIV (HIV-1 [2]; 50% AB serum, 30 μg/ml 2 hrs, d10): > 1500 pg/mL
efficacy on inhibition of wild HIV-1 in human serum (HIV-1 [2]; 50% human serum): remained unchanged
influence of constituents of human serum (HIV-1 [2]; HIV-1 inhibition at non-cytotoxic concentrations): did not appear to be influenced by the constituents of the human serum
Production of P24 in HIV (HIV-1 [2]; no serum, 10 μg/ml 2 hrs, d4): 388 ± 124 pg/mL
Production of P24 in HIV (HIV-1 [2]; no serum, 10 μg/ml 2 hrs, d10): > 1500 pg/mL
Production of P24 in HIV (HIV-1 [2]; no serum, 30 μg/ml 2 hrs, d4): 173 ± 102 pg/mL
Production of P24 in HIV (HIV-1 [2]; no serum, 30 μg/ml 2 hrs, d10): > 1500 pg/mL
appearance and development of vital papules [3]: prevents the appearance and development of vital papules
direct activity on production of IL-1β (IL-1β [4]; donor #10, 10 and 20 μg/ml): responded very well
direct activity on production of IL-1β (IL-1β [4]; donors #3, 5 and 6, dose effect, marginal): Increase in the production of IL-1β
indirect activity on production of IL-1β (IL-1β [4]; response to LPS or IFN-γ+LPS, p<0.05): no significant modification
viability of blast PBMC ([5]; 200 μg/ml, p<0.001): diminished significantly
significant reduction of viability of blast PBMC ([5]; 100, 60, 30 and 10 μg/ml): this was not the case
IC100 (HIV-1 [6]): 60 to 100 µg/mL
activity against the influenza virus (influenza virus; EP-A-0 059 817): active against the influenza virus
action against influenza (RNA virus) (influenza virus; in vivo): appears to act in vivo against influenza
infection of target PBMC (HIV-1 TIG2 (HIV-1AIDS) [7]): completely prevented the infection of target PBMC
LD50 at 336 h (in vivo; ip): 2450 mg/kg
LD50 safety limits (in vivo; ip): 2350 to 2550 mg/kg
LD50 at 336 h (in vivo; po): 10400 mg/kg
LD50 safety limits (in vivo; po): 9630 to 11350 mg/kg
change in mortality rate (in vivo; subsequent 14 days, surviving animals): No change in mortality rate
cytotoxicity ([8]; 30 μg/ml, four donors): > 40%
MCC ([8]; healthy and asymptomatic HIV-positive donors, read-out: toxic dosage on human monocytes in vitro): > 20 µg/mL
cytotoxicity (human monocytes; 30, 50, 100 μg/ml): virtually total cytotoxicity
cytotoxicity (human monocytes; above 30 μg/ml): 100 µg/mL
cellular toxicity (MT4 cells; 100 μg/ml, Table I): cellular toxicity
cellular toxicity (MT4 cells; 100 μg/ml, Table I, listed as H): Tox
cellular toxicity (MT4 cells; 100 μg/ml, Table II): Tox
cellular toxicity (MT4 cells; 400 μg/ml, Table I): cellular toxicity
cellular toxicity (MT4 cells; 400 μg/ml, Table I, listed as H): Tox
CD2 (HIV [9]): Increase
CD4 (HIV [9]): Increase
CD4+ cells (HIV [9]): significant increase
CD8 (HIV [9]): Increase
CD19 (HIV [9]): Increase
CD19+ cells (HIV [9]): significant increase
Karnofsky's index (HIV [9]): ~100%
blood or renal toxicity (HIV [9]): Neither blood nor renal toxicity was observed
degradation in CDC classification (HIV [9]): No degradation in the CDC classification
effect on viral infectional capacity of HIV (HIV [9]): significant inhibitory effect on the viral infectional capacity of HIV
hemoglobin (HIV [9]): Increase
infections (HIV [9]): no infections were noticed
microglobulin beta-2 (HIV [9]): Increase
modification in ALAT or ASAT (HIV [9]): nor was there any significant modification in ALAT or ASAT
patients with negative decline in CD4+ reversed (HIV [9]): 18 out of 19
physical and professional activity (HIV [9]): remained completely normal
red cells (HIV [9]): Increase
side effects (HIV [9]): Side effects were few, occurring only in the first three months
total lymphocyte mass (HIV [9]): Increase
toxic or side effects (HIV [9]; po): devoid of toxic or side effects
infectious units detectable (HIV [10]): ≤ 3000
inhibition of infection (HIV [10]): exceeds 99%
reduction in quantity of infected cells (HIV [10]; h-9 cells): around 40%
Post-infection production of HIV P24 (HIV-1 TIG2 (HIV-1AIDS) [11]; d3): 515 ± 103 pg/mL
Post-infection production of HIV P24 (HIV-1 TIG2 (HIV-1AIDS) [11]; d5): > 1500 pg/mL
inhibition of productive viral infections (HIV-1 TIG2 (HIV-1AIDS) [11]; target PBMC pretreated with 60 μg/ml only): complete inhibition of productive viral infections
effect on spontaneous production of IL-6 (interleukin-6; alone, dosage effect, never total, p<0.05, listed as Product H): inhibitory effect with a very clear dosage effect; also recorded: inhibited the spontaneous production of IL-6 shown in some HIV-positive patients
effect on spontaneous production of IL-6 with interleukin-4 (interleukin-6; in presence of interleukin-4, listed as product H): an amplification effect was almost always obtained
concentration for total disappearance of IL-6 production (interleukin-6; with interleukin-4, almost always (except case #4), p<0.05): 3 µg/mL
concentration for total disappearance of IL-6 production (often) (interleukin-6; with interleukin-4, often, p<0.05): 1 µg/mL
